Data: patent US5073557A, “Novel substituted pyrazine, formulations thereof and use in medicine” (Merck Sharp & Dohme Limited, priority 1989, dated 1991)

Tests used:
Assay type in all cases: cell-based
[1] = molecular target: T1, M3 muscarinic receptor (ileum) (Cavia porcellus, UniProt H0W1Z3); assay: Agonist activity against muscarinic receptors in the ileum (M3 agonist activity)
T1 construct: agonist activity against muscarinic receptors in the ganglion, heart and ileum; from tissue; host or cells: ileum
Source text: (§1) European Patent Application No. 89200147 (Publication No. 327155) discloses a class of pyrazines, pyridazines or pyrimidines, and salts and prodrugs thereof, substituted on one of the ring carbon atoms thereof with a non-aromatic azacyclic or azabicyclic ring system; and independently substituted on each of the other ring carbon atoms with a substituent of low lipophilicity or a hydrocarbon substituent, which compounds stimulate cholinergic transmission.
(§2) The following results are obtained in pharmacological assays to allow agonist activity against muscarinic receptors in the ganglion, heart and ileum.

[2] = molecular target: T2, M2 muscarinic receptor (heart) (Cavia porcellus, UniProt H0VRN8); assay: Pharmacological assay on muscarinic receptors in the heart (M2 antagonist activity); conditions: read-out: Heart (pA2) (converted)
T2 construct: agonist activity against muscarinic receptors in the ganglion, heart and ileum; from tissue
T2 sequence (H0VRN8 1-466): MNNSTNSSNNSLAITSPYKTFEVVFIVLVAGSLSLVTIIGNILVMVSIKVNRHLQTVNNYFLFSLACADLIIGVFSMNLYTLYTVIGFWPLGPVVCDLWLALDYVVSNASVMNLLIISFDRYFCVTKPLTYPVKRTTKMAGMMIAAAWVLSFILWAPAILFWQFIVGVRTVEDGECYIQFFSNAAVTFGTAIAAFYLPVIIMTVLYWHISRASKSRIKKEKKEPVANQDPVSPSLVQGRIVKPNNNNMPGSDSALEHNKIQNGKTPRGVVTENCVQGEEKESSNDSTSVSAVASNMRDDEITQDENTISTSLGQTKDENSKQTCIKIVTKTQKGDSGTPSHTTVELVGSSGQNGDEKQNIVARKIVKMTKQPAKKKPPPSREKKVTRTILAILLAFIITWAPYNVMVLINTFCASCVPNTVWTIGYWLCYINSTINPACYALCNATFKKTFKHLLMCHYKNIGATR
Source text: as §1, §2

[3] = molecular target: T3, M1 muscarinic receptor (ganglion) (Rattus norvegicus, UniProt P08482); assay: Agonist activity against muscarinic receptors in the ganglion (M1 agonist activity); conditions: for EC50: ganglion
T3 construct: agonist activity against muscarinic receptors in the ganglion, heart and ileum; from tissue
T3 sequence (P08482 1-460): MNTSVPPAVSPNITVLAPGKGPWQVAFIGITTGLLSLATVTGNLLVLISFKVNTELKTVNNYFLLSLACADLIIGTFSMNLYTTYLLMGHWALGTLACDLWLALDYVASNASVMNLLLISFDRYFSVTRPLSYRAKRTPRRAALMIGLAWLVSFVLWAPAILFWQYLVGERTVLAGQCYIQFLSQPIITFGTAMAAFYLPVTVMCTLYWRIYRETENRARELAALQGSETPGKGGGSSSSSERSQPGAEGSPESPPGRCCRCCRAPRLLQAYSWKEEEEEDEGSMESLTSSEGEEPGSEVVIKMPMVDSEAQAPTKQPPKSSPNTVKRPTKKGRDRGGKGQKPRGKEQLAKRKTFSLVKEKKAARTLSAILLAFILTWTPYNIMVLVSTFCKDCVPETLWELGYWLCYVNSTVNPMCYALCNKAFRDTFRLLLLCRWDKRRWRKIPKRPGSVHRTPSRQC
Source text: as §1, §2

T1 sequence (H0W1Z3 1-590): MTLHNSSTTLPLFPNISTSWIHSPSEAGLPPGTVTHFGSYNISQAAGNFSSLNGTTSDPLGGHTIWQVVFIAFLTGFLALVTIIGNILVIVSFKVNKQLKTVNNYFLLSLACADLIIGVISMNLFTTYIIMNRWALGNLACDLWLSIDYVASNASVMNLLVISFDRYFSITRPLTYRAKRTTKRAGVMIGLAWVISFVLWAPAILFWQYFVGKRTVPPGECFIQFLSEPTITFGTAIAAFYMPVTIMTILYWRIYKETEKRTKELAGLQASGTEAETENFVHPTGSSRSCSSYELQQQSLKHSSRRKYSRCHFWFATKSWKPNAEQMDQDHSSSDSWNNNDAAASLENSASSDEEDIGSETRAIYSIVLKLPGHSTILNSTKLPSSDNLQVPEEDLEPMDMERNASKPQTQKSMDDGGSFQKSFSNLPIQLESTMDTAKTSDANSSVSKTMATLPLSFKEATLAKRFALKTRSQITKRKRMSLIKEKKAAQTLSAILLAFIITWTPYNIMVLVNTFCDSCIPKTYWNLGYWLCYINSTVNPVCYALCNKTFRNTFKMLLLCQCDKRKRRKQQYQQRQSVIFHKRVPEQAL

| SMILES | EC50 [1] [nM] | Kb [2] [nM] | EC50 [3] [nM] | potency at the M1 receptor relative to the corresponding (S)-enantiomer ([3]; M1 receptor, versus (S)-enantiomer) | potency at the M1 receptor relative to the corresponding racemate ([3]; M1 receptor, versus racemate) |
| --- | --- | --- | --- | --- | --- |
| Clc1cncc(C2CN3CCC2CC3)n1 (racemic) [racemate, 3-[2-(6-chloropyrazin)yl]-1-azabicyclo[2.2.2]octane] | 30 | 79.4 | 100 |  |  |
| Clc1cncc([C@H]2CN3CCC2CC3)n1 [(1), (R)-3-[2-(6-chloropyrazin)yl]-1-azabicyclo[2.2.2]octane] | 40 | 63.1 | 50 | four times | twice the potency |
| Clc1cncc([C@@H]2CN3CCC2CC3)n1 [(S) isomer] | 600 | 126 | 200 |  |  |
